Like-named read-outs stand apart in the source and are kept apart here.
Columns and labels:
Format in all cases: cell-based
alpha2A receptor = biological target: T1, alpha2A receptor (Homo sapiens, UniProt P08913); test: Receptor Selection and Amplification Technology (RSAT) assay, Alpha 2A; settings: for Alpha 2A IA (intrinsic activity): ratio of maximal effect to that of standard full agonist brimonidine (UK14304)
T1 construct: expressed in transfected cells; host or cells: NIH-3T3 cells
T1 sequence (P08913 1-465): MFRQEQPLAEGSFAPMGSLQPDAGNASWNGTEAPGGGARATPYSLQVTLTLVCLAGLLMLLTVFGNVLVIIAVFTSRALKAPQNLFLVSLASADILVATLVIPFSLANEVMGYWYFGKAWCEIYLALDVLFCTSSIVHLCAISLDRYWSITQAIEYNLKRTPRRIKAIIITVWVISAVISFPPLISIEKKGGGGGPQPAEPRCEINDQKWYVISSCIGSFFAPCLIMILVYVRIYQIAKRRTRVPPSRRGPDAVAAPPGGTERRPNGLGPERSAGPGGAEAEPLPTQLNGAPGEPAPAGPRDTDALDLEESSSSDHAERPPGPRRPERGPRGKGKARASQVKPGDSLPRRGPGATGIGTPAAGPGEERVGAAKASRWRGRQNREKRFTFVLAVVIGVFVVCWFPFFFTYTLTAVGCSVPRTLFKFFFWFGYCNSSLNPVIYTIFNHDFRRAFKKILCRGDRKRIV
Protocol: (§1) Receptor Selection and Amplification Technology (RSAT) Assay
(§2) The RSAT assay measures a receptor-mediated loss of contact inhibition that results in selective proliferation of receptor-containing cells in a mixed population of confluent cells. The increase in cell number is assessed with an appropriate transfected marker gene such as β-galactosidase, the activity of which can be easily measured in a 96-well format. Receptors that activate the G protein, Gq, elicit this response. Alpha2 receptors, which normally couple to Gi, activate the RSAT response when coexpressed with a hybrid Gq protein that has a Gi receptor recognition domain, called Gq/i5.
(§3) NIH-3T3 cells are plated at a density of 2×10^6 cells in 15 cm dishes and maintained in Dulbecco's modified Eagle's medium supplemented with 10% calf serum. One day later, cells are cotransfected by calcium phosphate precipitation with mammalian expression plasmids encoding p-SV-β-galactosidase (5-10 μg), receptor (1-2 μg) and G protein (1-2 μg). 40 μg salmon sperm DNA may also be included in the transfection mixture. […] Cells are thawed and 100 μl added to 100 μl aliquots of various concentrations of drugs in triplicate in 96-well dishes. Incubations continue 72-96 hr at 37° C. After washing with phosphate-buffered saline, β-galactosidase enzyme activity is determined by adding 200 μl of the chromogenic substrate (consisting of 3.5 mM o-nitrophenyl-β-D-galactopyranoside and 0.5% nonidet P-40 in phosphate buffered saline), incubating overnight at 30° C. and measuring optical density at 420 nm. The absorbance is a measure of enzyme activity, which depends on cell number and reflects a receptor-mediated cell proliferation. The efficacy or intrinsic activity is calculated as a ratio of the maximal effect of the drug to the maximal effect of a standard full agonist for each receptor subtype. Brimonidine, also called UK14304, the chemical structure of which is shown below, is used as the standard agonist for the alpha2A, alpha2B and alpha2C receptors. The EC50 is the concentration at which the drug effect is half of its maximal effect.
(§4) EC50 values are nanomolar. NA stands for “not active” at concentrations less than 10 micromolar. IA stands for “intrinsic activity.”

alpha2B receptor = biological target: T2, alpha2B receptor (Homo sapiens, UniProt P18089); test: Receptor Selection and Amplification Technology (RSAT) assay, Alpha 2B; settings: for EC50: transfected NIH-3T3 cells with Gq/i5, not active = at concentrations less than 10 micromolar; for Alpha 2B IA (intrinsic activity): ratio of maximal effect to that of standard full agonist brimonidine (UK14304)
T2 construct: expressed in transfected cells; host or cells: NIH-3T3 cells
T2 sequence (P18089 1-450): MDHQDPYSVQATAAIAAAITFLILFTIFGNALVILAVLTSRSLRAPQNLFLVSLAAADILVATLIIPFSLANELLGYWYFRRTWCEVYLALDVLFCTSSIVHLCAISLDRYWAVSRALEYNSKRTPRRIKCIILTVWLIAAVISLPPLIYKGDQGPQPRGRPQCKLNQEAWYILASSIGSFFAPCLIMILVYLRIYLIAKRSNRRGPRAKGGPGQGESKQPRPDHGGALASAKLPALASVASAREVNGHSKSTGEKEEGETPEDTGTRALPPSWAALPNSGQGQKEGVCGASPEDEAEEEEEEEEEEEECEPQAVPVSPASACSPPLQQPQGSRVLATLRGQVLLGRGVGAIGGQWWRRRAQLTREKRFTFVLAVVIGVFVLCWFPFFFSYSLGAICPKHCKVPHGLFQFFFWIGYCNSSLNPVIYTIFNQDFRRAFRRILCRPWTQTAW
Protocol: as §1, §2
NIH-3T3 cells are plated at a density of 2×10^6 cells in 15 cm dishes and maintained in Dulbecco's modified Eagle's medium supplemented with 10% calf serum. One day later, cells are cotransfected by calcium phosphate precipitation with mammalian expression plasmids encoding p-SV-β-galactosidase (5-10 μg), receptor (1-2 μg) and G protein (1-2 μg). 40 μg salmon sperm DNA may also be included in the transfection mixture. Fresh media is added on the following day and 1-2 days later, cells are harvested and frozen in 50 assay aliquots. Cells are thawed and 100 μl added to 100 μl aliquots of various concentrations of drugs in triplicate in 96-well dishes. Incubations continue 72-96 hr at 37° C. After washing with phosphate-buffered saline, β-galactosidase enzyme activity is determined by adding 200 μl of the chromogenic substrate (consisting of 3.5 mM o-nitrophenyl-β-D-galactopyranoside and 0.5% nonidet P-40 in phosphate buffered saline), incubating overnight at 30° C. and measuring optical density at 420 nm. The absorbance is a measure of enzyme activity, which depends on cell number and reflects a receptor-mediated cell proliferation. The efficacy or intrinsic activity is calculated as a ratio of the maximal effect of the drug to the maximal effect of a standard full agonist for each receptor subtype. Brimonidine, also called UK14304, the chemical structure of which is shown below, is used as the standard agonist for the alpha2A, alpha2B and alpha2C receptors. The EC50 is the concentration at which the drug effect is half of its maximal effect.
The results of the RSAT assay with several exemplary compounds of the invention are disclosed in Table 1 above together with the chemical formulas of these exemplary compounds. EC50 values are nanomolar. NA stands for “not active” at concentrations less than 10 micromolar. IA stands for “intrinsic activity.”

alpha2C receptor = biological target: T3, alpha2C receptor (Homo sapiens, UniProt P18825); test: Receptor Selection and Amplification Technology (RSAT) assay, Alpha 2C; settings: for Alpha 2C IA (intrinsic activity): ratio of maximal effect to that of standard full agonist brimonidine (UK14304)
T3 construct: expressed in transfected cells; host or cells: NIH-3T3 cells
T3 sequence (P18825 1-462): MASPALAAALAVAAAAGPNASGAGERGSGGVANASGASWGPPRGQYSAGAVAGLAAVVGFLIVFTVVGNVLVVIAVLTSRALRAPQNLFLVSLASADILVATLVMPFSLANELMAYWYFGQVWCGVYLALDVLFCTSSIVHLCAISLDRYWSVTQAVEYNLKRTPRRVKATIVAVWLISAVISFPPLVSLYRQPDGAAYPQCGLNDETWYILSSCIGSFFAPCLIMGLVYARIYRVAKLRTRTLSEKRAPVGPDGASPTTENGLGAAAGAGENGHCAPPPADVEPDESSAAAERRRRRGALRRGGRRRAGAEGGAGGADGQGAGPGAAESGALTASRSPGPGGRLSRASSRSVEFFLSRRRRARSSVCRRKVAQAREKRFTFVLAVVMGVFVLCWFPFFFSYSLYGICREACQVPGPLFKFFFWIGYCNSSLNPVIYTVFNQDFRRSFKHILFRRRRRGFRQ
Protocol: as §1, §2, §3, §4

[1] = RSAT, transfected NIH-3T3 cells with Gq/i5, not active = at concentrations less than 10 micromolar
[2] = RSAT, transfected NIH-3T3 cells with Gq/i5, not active = at concentrations less than 10 micromolar, read-out: Alpha 2C EC50

Row | SMILES | Alpha 2A EC50 (alpha2A receptor; [1]) | EC50 (alpha2B receptor; RSAT, read-out: Alpha 2B EC50) [nM] | Alpha 2B IA (intrinsic activity) (alpha2B receptor) | Alpha 2C EC50 (alpha2C receptor; [1]) | EC50 (alpha2A receptor; RSAT, transfected NIH-3T3 cells with Gq/i5, not active = at concentrations less than 10 micromolar, read-out: Alpha 2A EC50) [nM] | Alpha 2A IA (intrinsic activity) (alpha2A receptor) | EC50 (alpha2C receptor; [2]) [nM] | Alpha 2C IA (intrinsic activity) (alpha2C receptor) | EC50 (alpha2B receptor; Alpha 2B EC50, RSAT) [nM] | EC50 (alpha2C receptor) [nM] | EC50 (alpha2A receptor) [nM]
1 | O=C(NCCF)NC(Cc1ccccc1Cl)c1ccccc1 (stereo not drawn) | not active | 606 | 0.63 | not active | – | – | – | – | – | – | –
2 | O=C(NCCF)NC(Cc1ccccc1)c1ccc(Cl)cc1 (stereo not drawn) | not active | 177 | 0.55 | not active | – | – | – | – | – | – | –
3 | O=C(NCCF)NC(Cc1ccccc1)c1ccccc1F (stereo not drawn) | – | 103 | 0.79 | – | 2140 | 0.35 | 101 | 0.31 | – | – | –
4 | O=C(NCCF)NC(Cc1ccccc1)c1ccc(F)cc1 (stereo not drawn) | not active | 299 | 0.71 | not active | – | – | – | – | – | – | –
5 | Cc1ccccc1CC(NC(=O)NCCF)c1cccc(Cl)c1 (stereo not drawn) | not active | 26.8 | 0.94 | – | – | – | 787 | 0.38 | – | – | –
6 | Cc1cccc(C(Cc2ccccc2F)NC(=O)NCCF)c1 (stereo not drawn) | not active | 13.8 | 1.02 | not active | – | – | – | – | – | – | –
7 | Cc1cccc(C(Cc2ccc(F)cc2)NC(=O)NCCF)c1 (stereo not drawn) | not active | 42.9 | 0.88 | not active | – | – | – | – | – | – | –
8 | O=C(NCCF)NC(Cc1ccccc1)c1ccc(O)cc1 (stereo not drawn) | not active | 146 | 0.82 | not active | – | – | – | – | – | – | –
9 | O=C(NCCF)NC(Cc1ccccc1)c1ccccc1 (stereo not drawn) [1-(1,2-diphenyl-ethyl)-3-(2-fluoro-ethyl)-urea] | not active | – | 0.96 | – | – | – | – | 0.32 | 33.8 | 345 | –
10 | O=C(NCCF)NC(Cc1ccccc1)C1CCCCC1 (stereo not drawn) [1-(1-cyclohexyl-2-phenylethyl)-3-(2-fluoroethyl)urea] | not active | 640 | 0.33 | not active | – | – | – | – | – | – | –
11 | O=C(NCCF)NC(Cc1ccccc1)C1CCCC1 (stereo not drawn) [1-(1-cyclopentyl-2-phenylethyl)-3-(2-fluoroethyl)urea] | not active | 378 | 0.6 | not active | – | – | – | – | – | – | –
12 | Cc1cccc(C(Cc2ccsc2)NC(=O)NCCF)c1 (stereo not drawn) [1-(2-Fluoro-ethyl)-3-(2-thiophen-3-yl-1-m-tolyl-ethyl)-urea] | not active | 63.4 | 1.0 | not active | – | – | – | – | – | – | –
13 | O=C(NCCF)NC(Cc1ccccc1)c1ccco1 (stereo not drawn) [1-(2-fluoro-ethyl)-3-(1-furan-2-yl-2-phenyl-ethyl)-urea] | not active | 513 | 0.77 | not active | – | – | – | – | – | – | –
14 | Cc1cccc(C(Cc2ccccn2)NC(=O)NCCF)c1 (stereo not drawn) [1-(2-fluoro-ethyl)-3-(2-pyridin-2-yl-1-m-tolyl-ethyl)-urea] | not active | 135 | 0.87 | not active | – | – | – | – | – | – | –
15 | Cc1cccc(C(Cc2cccnc2)NC(=O)NCCF)c1 (stereo not drawn) [1-(2-fluoro-ethyl)-3-(2-pyridin-3-yl-1-m-tolyl-ethyl)-urea] | not active | 53.2 | 0.95 | not active | – | – | – | – | – | – | –
16 | Cc1cccc(C(Cc2ccncc2)NC(=O)NCCF)c1 (stereo not drawn) [1-(2-fluoro-ethyl)-3-(2-pyridin-4-yl-1-m-tolyl-ethyl)-urea] | – | – | 1.1 | not active | – | 0.44 | – | – | 37.7 | – | 341
17 | Cc1cccc(C(Cc2cccs2)NC(=O)NCCF)c1 (stereo not drawn) [1-(2-fluoro-ethyl)-3-(2-thiophen-2-yl-1-m-tolyl-ethyl)-urea] | not active | 37 | 1.08 | not active | – | – | – | – | – | – | –
18 | O=C(NCCF)NC(Cc1ccccc1F)c1cccnc1 (stereo not drawn) [1-(2-fluoro-ethyl)-3-[2-(2-fluoro-phenyl)-1-pyridin-3-yl-ethyl]-urea] | not active | 747 | 0.78 | not active | – | – | – | – | – | – | –
19 | O=C(NCCF)NC(Cc1ccccc1F)c1ccncc1 (stereo not drawn) [1-(2-fluoro-ethyl)-3-[2-(2-fluoro-phenyl)-1-pyridin-4-yl-ethyl]-urea] | not active | 2120 | 0.53 | not active | – | – | – | – | – | – | –
